For the experiment, the system named is S. aureus 209P JC-1. Nature of the experiment: in vitro Antimicrobial Activity, two-fold agar-plate dilution method (MIC). It is filed as cell-based. The conditions noted are these: Staphylococcus aureus, HI-agar, 37° C., 20 hours, 10^6 viable cells per ml, read-out: MIC (minimal inhibitory concentration). Here is the method:
in vitro Antimicrobial Activity was determined by the two-fold agar-plate dilution method as described below.
One loopful of an overnight culture of a test strain in Trypticase-soy broth (10^6 viable cells per ml) was streaked on heart infusion agar (HI-agar) containing graded concentrations of the test compound, and the minimal inhibitory concentration (MIC) was expressed in terms of […] after incubation at 37° C. for 20 hours.

As to `C/C(=C\[C@@H]1CCCN1)C1=C(C(=O)O)N2C(=O)[C@H]([C@@H](C)O)[C@H]2C1` [Example 4-(1), (5R,6S)-6-[(1R)-1-hydroxyethyl]-7-oxo-3-[(E)-2-{(2S)-pyrrolidin-2-yl}-1-methylethenyl]-1-azabicyclo [3.2.0]hept-2-ene-2-carboxylic acid], the MIC is ≤ 0.025 µg/mL.

The values above are taken from patent US4923857A, “3-Alkenyl-1-azabicyclo(3.2.0)hept-2-ene-2-carboxylic acid compounds” (Fujisawa Pharmaceutical Company, Ltd., priority 1988, dated 1990).
